Experimental data reported in US20110015069A1, “Herbicidal Compositions Comprising Pyroxasulfone IV” (BASF SE, priority 2008, published 2011).
Read-outs that look alike come from different tables or passages of the source.

Assays:
Bromus inermis (BROIN) = assay: greenhouse pre-emergence herbicidal activity; assay type: in vivo; details: read-out: observed % activity; for inhibition at 12.5 g/ha: pyroxasulfone 12.5 g ai/ha; for inhibition at 25 g/ha: pyroxasulfone 25 g ai/ha; for inhibition at 47 g/ha: metazachlor 47 g ai/ha
Text: (§1) For the pre-emergence treatment, directly after sowing the active compounds, which had been suspended or emulsified in water, were applied by means of finely distributed nozzles. The containers were irrigated gently to promote germination and growth and subsequently covered with transparent plastic hoods until plant had rooted. This cover caused uniform germination of the tests plants, unless this was adversely affected by active compounds.
(§2) The respective herbicides A and/or safener were formulated as 10% by weight strength emulsion concentrate and introduced to the spray liquor with the amount of solvent system used for applying the active compound. In the examples, the solvent used was water. Herbicide B and/or safener were used as commercially available formulations and introduced to the spray liquor with the amount of solvent system used for applying the active compound. In the examples, the solvent used was water.
(§3) Metazachlor was used as a commercial aqueous suspension concentrate having an active ingredient concentration of 500 g/l.
(§4) The test period extended over 21 days. During this time, the plants were tended, and their response to the treatments with active compound was evaluated.
(§5) The evaluation for the damage caused by the chemical compositions was carried out using a scale from 0 to 100%, compared to the untreated control plants. Here, 0 means no damage and 100 means complete destruction of the plants.
(§6) The value E, which is to be expected if the activity of the individual compounds is just additive, was calculated using the method of S. R. Colby (1967) “Calculating synergistic and antagonistic responses of herbicide combinations”, Weeds 15, p. 22 ff.
(§7) where X=effect in percent using herbicide A at an application rate a; • Y=effect in percent using herbicide B at an application rate b; • E=expected effect (in %) of A+B at application rates a+b.
(§8) If the value observed in this manner is higher than the value E calculated according to Colby, a synergistic effect is present.

[1] = system: Matricaria inermis (MATIN); assay: greenhouse pre-emergence herbicidal activity; assay type: in vivo; details: read-out: observed % activity; for inhibition at 6.25 g/ha: pyroxasulfone 6.25 g ai/ha; for inhibition at 25 g/ha: pyroxasulfone 25 g ai/ha; for inhibition at 47 g/ha: metazachlor 47 g ai/ha
Text: as §1, §2, §3, §4, §5, §6, §7, §8

[2] = system: Capsella bursa-pastoris (CAPBP); assay: greenhouse pre-emergence herbicidal activity; assay type: in vivo; details: read-out: observed % activity; for inhibition at 6.25 g/ha: pyroxasulfone 6.25 g ai/ha; for inhibition at 25 g/ha: pyroxasulfone 25 g ai/ha; for inhibition at 50 g/ha: pyroxasulfone 50 g ai/ha; for inhibition at 47 g/ha: metazachlor 47 g ai/ha; for inhibition at 94 g/ha: metazachlor 94 g ai/ha
Text: as §1, §2, §3, §4, §5, §6, §7, §8

Galium aparine (GALAP) = assay: greenhouse pre-emergence herbicidal activity; assay type: in vivo; details: read-out: observed % activity; for inhibition at 50 g/ha: pyroxasulfone 50 g ai/ha; for inhibition at 47 g/ha: metazachlor 47 g ai/ha
Text: as §1, §2, §3, §4, §5, §6, §7, §8

Thlaspi arvense (THLAR) = assay: greenhouse pre-emergence herbicidal activity; assay type: in vivo; details: read-out: observed % activity; for inhibition at 6.25 g/ha: pyroxasulfone 6.25 g ai/ha; for inhibition at 12.5 g/ha: pyroxasulfone 12.5 g ai/ha; for inhibition at 25 g/ha: pyroxasulfone 25 g ai/ha; for inhibition at 50 g/ha: pyroxasulfone 50 g ai/ha; for inhibition at 47 g/ha: metazachlor 47 g ai/ha; for inhibition at 94 g/ha: metazachlor 94 g ai/ha; for inhibition at 187 g/ha: metazachlor 187 g ai/ha
Text: as §1, §2, §3, §4, §5, §6, §7, §8

[3] = known from Y. Yamaji et al., 2006; cited from earlier work
[4] = system: Matricaria inermis (MATIN); assay: greenhouse post-emergence herbicidal activity; assay type: in vivo; details: 20 DAT
Text: (§9) For the post-emergence treatment, the test plants were first grown to a height of 3 to 20 cm, depending on the plant habit, and only then treated. Here, the herbicidal compositions were suspended or emulsified in water as distribution medium and sprayed using finely distributing nozzles.
as §2, §3, §4, §5, §6, §7, §8

[5] = system: Capsella bursa-pastoris (CAPBP); assay: greenhouse post-emergence herbicidal activity; assay type: in vivo; details: 20 DAT
Text: as §9, §2, §3, §4, §5, §6, §7, §8

Veronica persica (VERPE) = assay: greenhouse post-emergence herbicidal activity; assay type: in vivo; details: 20 DAT
Text: as §9, §2, §3, §4, §5, §6, §7, §8

Viola arvensis (VIOAR) = assay: greenhouse post-emergence herbicidal activity; assay type: in vivo; details: for inhibition at 25 g/ha / inhibition at 100 g/ha / inhibition at 94 g/ha: Viola arvensis, read-out: observed % activity; for observed activity in % destruction 20 days after treatment: 20 DAT (Table 3)
Text: as §9, §2, §3, §4, §5, §6, §7, §8

Structure (SMILES): Cn1nc(C(F)(F)F)c(CS(=O)(=O)C2=NOC(C)(C)C2)c1OC(F)F [pyroxasulfone, 3-[5-(difluoromethoxy)-1-methyl-3-(trifluoromethyl)pyrazol-4-ylmethylsulfonyl]-4,5-dihydro-5,5-dimethyl-1,2-oxazole]
- inhibition at 12.5 g/ha (Bromus inermis (BROIN); 192 h, 8 DAT): 50%
- inhibition at 25 g/ha (Bromus inermis (BROIN); 192 h, 8 DAT): 50%
- inhibition at 12.5 g/ha (Bromus inermis (BROIN); 480 h, 20 DAT): 50%
- inhibition at 25 g/ha (Bromus inermis (BROIN); 480 h, 20 DAT): 60%
- inhibition at 6.25 g/ha ([1]; 192 h, 8 DAT): 0%
- inhibition at 25 g/ha ([1]; 192 h, 8 DAT): 20%
- inhibition at 6.25 g/ha ([1]; 480 h, 20 DAT): 20%
- inhibition at 25 g/ha ([1]; 480 h, 20 DAT): 50%
- inhibition at 6.25 g/ha ([2]; 192 h, 8 DAT): 40%
- inhibition at 25 g/ha ([2]; 192 h, 8 DAT): 60%
- inhibition at 50 g/ha ([2]; 192 h, 8 DAT): 60%
- inhibition at 6.25 g/ha ([2]; 480 h, 20 DAT): 40%
- inhibition at 25 g/ha ([2]; 480 h, 20 DAT): 95%
- inhibition at 50 g/ha ([2]; 480 h, 20 DAT): 95%
- inhibition at 50 g/ha (Galium aparine (GALAP); 192 h, 8 DAT): 60%
- inhibition at 50 g/ha (Galium aparine (GALAP); 480 h, 20 DAT): 80%
- inhibition at 6.25 g/ha (Thlaspi arvense (THLAR); 192 h, 8 DAT): 30%
- inhibition at 12.5 g/ha (Thlaspi arvense (THLAR); 192 h, 8 DAT): 40%
- inhibition at 25 g/ha (Thlaspi arvense (THLAR); 192 h, 8 DAT): 60%
- inhibition at 50 g/ha (Thlaspi arvense (THLAR); 192 h, 8 DAT): 60%
- inhibition at 6.25 g/ha (Thlaspi arvense (THLAR); 480 h, 20 DAT): 20%
- inhibition at 12.5 g/ha (Thlaspi arvense (THLAR); 480 h, 20 DAT): 30%
- inhibition at 25 g/ha (Thlaspi arvense (THLAR); 480 h, 20 DAT): 80%
- inhibition at 50 g/ha (Thlaspi arvense (THLAR); 480 h, 20 DAT): 80%
- post-emergence activity [3]: poor
- observed activity in % destruction 20 days after treatment ([4]; pyroxasulfone 25 g ai/ha): 0%
- observed activity in % destruction 20 days after treatment ([4]; pyroxasulfone 50 g ai/ha): 0%
- observed activity in % destruction 20 days after treatment ([4]; pyroxasulfone 100 g ai/ha): 20%
- observed activity in % destruction 20 days after treatment ([5]; pyroxasulfone 25 g ai/ha): 35%
- observed activity in % destruction 20 days after treatment (Veronica persica (VERPE); pyroxasulfone 100 g ai/ha): 90%
- inhibition at 25 g/ha (Viola arvensis (VIOAR); 168 h, pyroxasulfone 25 g ai/ha, 7 DAT): 0%
- inhibition at 100 g/ha (Viola arvensis (VIOAR); 168 h, pyroxasulfone 100 g ai/ha, 7 DAT): 50%
- inhibition at 25 g/ha (Viola arvensis (VIOAR); 480 h, pyroxasulfone 25 g ai/ha, 20 DAT): 0%
- inhibition at 100 g/ha (Viola arvensis (VIOAR); 480 h, pyroxasulfone 100 g ai/ha, 20 DAT): 65%
- observed activity in % destruction 20 days after treatment (Viola arvensis (VIOAR); pyroxasulfone 25 g ai/ha): 0%
- observed activity in % destruction 20 days after treatment (Viola arvensis (VIOAR); pyroxasulfone 100 g ai/ha): 65%

Structure (SMILES): Cc1cccc(C)c1N(Cn1cccn1)C(=O)CCl [metazachlor]
- inhibition at 47 g/ha (Bromus inermis (BROIN); 192 h, 8 DAT): 35%
- inhibition at 47 g/ha (Bromus inermis (BROIN); 480 h, 20 DAT): 30%
- inhibition at 47 g/ha ([1]; 192 h, 8 DAT): 20%
- inhibition at 47 g/ha ([1]; 480 h, 20 DAT): 35%
- inhibition at 47 g/ha ([2]; 192 h, 8 DAT): 40%
- inhibition at 94 g/ha ([2]; 192 h, 8 DAT): 40%
- inhibition at 47 g/ha ([2]; 480 h, 20 DAT): 70%
- inhibition at 94 g/ha ([2]; 480 h, 20 DAT): 80%
- inhibition at 47 g/ha (Galium aparine (GALAP); 192 h, 8 DAT): 30%
- inhibition at 47 g/ha (Galium aparine (GALAP); 480 h, 20 DAT): 35%
- inhibition at 47 g/ha (Thlaspi arvense (THLAR); 192 h, 8 DAT): 20%
- inhibition at 94 g/ha (Thlaspi arvense (THLAR); 192 h, 8 DAT): 30%
- inhibition at 187 g/ha (Thlaspi arvense (THLAR); 192 h, 8 DAT): 45%
- inhibition at 47 g/ha (Thlaspi arvense (THLAR); 480 h, 20 DAT): 0%
- inhibition at 94 g/ha (Thlaspi arvense (THLAR); 480 h, 20 DAT): 0%
- inhibition at 187 g/ha (Thlaspi arvense (THLAR); 480 h, 20 DAT): 30%
- observed activity in % destruction 20 days after treatment ([4]; metazachlor 187 g ai/ha): 60%
- observed activity in % destruction 20 days after treatment ([4]; metazachlor 750 g ai/ha): 80%
- observed activity in % destruction 20 days after treatment ([5]; metazachlor 94 g ai/ha): 45%
- observed activity in % destruction 20 days after treatment (Veronica persica (VERPE); metazachlor 94 g ai/ha): 60%
- observed activity in % destruction 20 days after treatment (Veronica persica (VERPE); metazachlor 187 g ai/ha): 80%
- inhibition at 94 g/ha (Viola arvensis (VIOAR); 168 h, metazachlor 94 g ai/ha, 7 DAT): 30%
- inhibition at 94 g/ha (Viola arvensis (VIOAR); 480 h, metazachlor 94 g ai/ha, 20 DAT): 0%
- observed activity in % destruction 20 days after treatment (Viola arvensis (VIOAR); metazachlor 94 g ai/ha): 0%
